{"source": "patent US20170172944A1", "about": "“METHODS OF TREATING MELANOMA” (Mitchell Woods Pharmaceuticals, Inc., priority 2014, published 2017)", "assay_type_in_all_cases": "cell-based, human", "key": {"[1]": {"tested_on": "UACC647 cells", "test": "[3H]-thymidine incorporation assay", "conditions": "serum-starved UACC647 cells, 24 hours", "description": "[^3H]-Thymidine Incorporation Assay.\nCells were seeded in 12-well plates at approximately 50,000 cells/well and incubated at 37° C. After 24 hours, the wells were rinsed with PBS and replaced with serum-free medium containing the appropriate concentration of the test compounds. After another 24-hour incubation at 37° C., 1 μCi of [^3H]-thymidine was added to each well and incubated at 37° C. for 16 hours. [^3H]-Thymidine incorporation into DNA was monitored after the cells were washed twice with PBS and then lysed in 600 μl of 0.1 N NaOH for 30 minutes with shaking. The lysate was then mixed with 3 mL of liquid scintillation cocktail (Beckman Coulter, Inc., Brea, Calif.), and radioactivity was measured by liquid scintillation counting using Beckman Coulter LS6000IC Scintillation Counter. Data are shown as CPM incorporated compared to the control cells.\n(§1) UACC-647, M93-047 and UACC-903 cells were seeded out on E-Plates and allowed to settle. Cells were stimulated with MNF. Cellular proliferation and adherence was measured every 15 minutes using xCELLigence RTCA station. Serum-starved UACC647 cells were incubated with range of (R,R′)-MNF concentrations for 24 hours and the levels of [3H]thymidine incorporation were measured."}, "[2]": {"tested_on": "eukaryotic elongation factor 2 (eEF2) in UACC-647 cells", "test": "eEF2 phosphorylation (Western blot), UACC-647", "conditions": "UACC-647, serum starved 3 hours, 1 fM to 10 μM, 15 minutes", "description": "(§2) Cells were lysed with RIPA buffer containing EGTA and EDTA (Boston BioProducts, Ashland, Mass.). The lysis buffer was mixed with a protease inhibitor cocktail (Sigma-Aldrich). Protein concentrations were measured using the bicinchoninic acid reagent (Thermo-Pierce Biotechnology, Inc., Rockford, Ill.). Proteins (20 μg/well) were separated on 4-12% precast gels (Invitrogen, Carlsbad, Calif.) using SDS-polyacrylamide gel electrophoresis under reducing conditions and were electrophoretically transferred onto polyvinylidene fluoride membrane (Invitrogen). Western blots were performed according to standard methods. The visualization of immunoreactive bands was performed using the ECL Plus Western Blotting Detection System (GE Healthcare, NJ) and their quantification was done by volume densitometry using Image J software and normalization to β-actin. […]\n(§3) UACC-647, M93-047 and UACC-903 cells were serum starved for 3 hours and subjected to concentration gradient of (R,R′)-MNF (1 fM to 10 μM) or vehicle (DMSO, 0.1%) for 15 minutes. […] Proteins of interest were detected using (phospho)specific antibodies of rabbit origin and visualized by chemiluminescence. […] Levels of total and phosphorylated form of eEF2 were quantified in (R,R′)-MNF-treated cells by means of volume densitometry."}, "[3]": {"tested_on": "eukaryotic elongation factor 2 (eEF2) in M93-047 cells", "test": "eEF2 phosphorylation (Western blot), M93-047", "conditions": "M93-047, serum starved 3 hours, 1 fM to 10 μM, 15 minutes", "description": "as §2, §3"}, "[4]": {"tested_on": "melanoma cells (UACC-647, M93-047 and UACC-903)", "test": "[35S] methionine labeling, de novo protein synthesis", "conditions": "10 fM, 10 pM, 10 nM for 15 minutes, then [35S]Met/Cys labeling 30 minutes", "description": "[^35S] Methionine Labeling.\nSerum starved cells were incubated in serum-free medium without methionine and cysteine and treated with (R,R′)-MNF. Then, [^35S]Met/Cys labeling was carried out. Cell lysates were resolved by SDS-polyacrylamide gel electrophoresis and transferred onto PVD membrane, and autoradiography was performed. The membrane was probed with anti-β-actin antibody to confirm equal protein loading.\nSerum starved (3 hours) UACC-647, M93-047 and UACC-903 cells were washed with PBS and incubated in serum-free medium without methionine and cysteine. Then, cells were treated with (R,R′)-MNF (10 fM, 10 pM, 10 nM) or incubated with vehicle (DMSO, 0.1%) for 15 minutes followed by [35S]Met/Cys labeling for 30 minutes. Cell lysates were resolved by SDS-PAGE and transferred onto PVD membrane, and autoradio-graphy was performed. The membrane was probed with anti-β-actin antibody to confirm equal protein loading. Amounts of de novo synthesized proteins were evaluated by means of volume densitometry. Obtained values were normalized to β-actin levels."}, "[5]": {"tested_on": "UACC-647 cells", "test": "Scratch wound healing assay, UACC-647", "conditions": "UACC-647, 100 pM to 10 μM, 24 hours", "description": "(§4) A scratch wound was made with a cell scraper. Cells were pictured using Axiovert 200 microscope and AxioCam HRc camera. (Carl Zeiss)\n(§5) UACC-647, M93-047 and UACC-903 cells were cultured until confluency. Uniform scratch wounds were made on the monolayer cultures using cell scraper and the cells were challenge with (R,R′)-MNF (100 pM to 10 μM) or vehicle (DMSO, 0.1%). Images were captured at the onset of the treatment and after 24 hours."}, "[6]": {"tested_on": "M93-047 cells", "test": "Scratch wound healing assay, M93-047", "conditions": "M93-047, 100 pM to 10 μM, 24 hours", "description": "as §4, §5"}, "[7]": {"tested_on": "UACC-647 cells", "test": "Migration and invasion towards 10% FBS (xCELLigence RTCA), UACC-647", "conditions": "for migratory rate / effect of pretreatment on anti-migratory activity of MNF (100 nM): UACC-647, H-89 20 μM; for migratory rate: MNF 100 nM, Forskolin 10 μM; for effect of pretreatment on anti-migratory activity of MNF (100 nM): ICI 118,551 50 nM", "description": "(§6) Assays were performed using xCELLigence RTCA Analyzer. Serum-starved cells were allowed to migrate or invade towards 10% FBS via bare microporous PET membrane or Matrigel-coated membrane, respectively.\n(§7) Migration and Invasion Assay.\n(§8) Migration and invasion of UACC-647, M93-047 and UACC-903 towards 10% FBS were monitored using xCELLigence system\n(§9) Serum-starved UACC-647, M93-047 and UACC-903 cells were plated onto unmodified or Matrigel-coated CIM-Plates. The cells were treated with (R,R′)-MNF or vehicle (DMSO, 0.1%). Migration and invasion towards 10% FBS was monitored using xCELLigence RTCA station. Times of half-maximal infiltration of the cells towards serum were calculated and plotted against (R,R′)-MNF concentration.\nICI 118,551 and H-89 pretreatment blocked inhibitory activity of (R,R′)-MNF on UACC-647, while Forskolin mimicked (R,R′)-MNF. UACC-647 were serum-starved, pretreated with ICI 118,551, Forskolin, H-89 or DMSO and plated onto unmodified CIM-Plates. Migration towards 10% FBS was monitored using xCELLigence RTCA station. […] Forskolin (activator of adenylyl cyclase, 10 μM) mimicked MNF (100 nM). […] Pretreatment with H-89 blocked anti-migratory activity of MNF (100 nM)."}, "[8]": {"tested_on": "M93-047 cells", "test": "Migration and invasion towards 10% FBS (xCELLigence RTCA), M93-047", "description": "as §6, §7, §8, §9"}, "[9]": {"tested_on": "UACC647 cells", "test": "Proliferation assay (xCELLigence RTCA), UACC647", "conditions": "UACC647, E-Plates, measured every 15 minutes", "description": "(§10) UACC-647, M93-047 and UACC-903 cells were seeded out on E-Plates and allowed to settle. Cells were stimulated with MNF. Cellular proliferation and adherence was measured every 15 min using xCELLigence RTCA station.\nas §1"}, "[10]": {"tested_on": "M93-047 cells", "test": "Proliferation assay (xCELLigence RTCA), M93-047", "conditions": "M93-047, E-Plates, measured every 15 minutes", "description": "as §10, §1"}, "[11]": {"tested_on": "UACC-903 cells", "test": "Proliferation assay (xCELLigence RTCA), UACC-903", "conditions": "UACC-903 cells (lacking EGFR)", "description": "as §10, §1"}, "[12]": {"tested_on": "phosphorylated ERK in UACC-647 cells", "test": "Phosphorylated ERK levels, UACC-647", "description": "(§11) Levels of ERK1/2 and its phosphorylated forms were determined using PathScan ELISA kits according to manufacturer's protocol (Perkin Elmer Alphascreen Surefire ERK1/2 assay kit, cat no. TGRES500).\n(§12) UACC-647, M93-047 or UACC-903 cells were serum starved for 3 hours and subjected to compound of interest or vehicle for 15 minutes."}, "[13]": {"tested_on": "phosphorylated ERK in M93-047 cells", "test": "Phosphorylated ERK levels, M93-047", "conditions": "M93-047, serum starved 3 hours, 15 minutes", "description": "as §11, §12"}, "[14]": {"tested_on": "phosphorylated MEK in UACC-647 cells", "test": "Phosphorylated MEK levels, UACC-647", "description": "(R,R′)-MNF decreased basal phosphorylation levels of ERK and MEK. UACC-647, M93-047 or UACC-903 cells were serum starved for 3 hours and subjected to compound of interest or vehicle for 15 minutes. […] Cell pretreatment with 50 nM ICI 118,551 abolished MNF-evoked drop in phospho ERK levels in UACC647."}}}
{"smiles": "COc1ccc(C[C@@H](C)NC[C@H](O)c2cc(O)cc(O)c2)c2ccccc12", "note": "[(R,R′)-MNF, (R,R′)-4′-methoxy-1-naphthylfenoterol]", "values": [{"measurement": "IC50", "setting": "[1]; Homo sapiens", "value": 136, "unit": "nM"}, {"measurement": "inhibition of incorporation of radiolabelled thymidine", "setting": "[1]; range of concentrations", "value": "38±3.67", "unit": "%"}, {"measurement": "rapid phosphorylation of eEF2", "setting": "[2]", "value": "induce rapid phosphorylation"}, {"measurement": "rapid phosphorylation of eEF2", "setting": "[3]", "value": "induce rapid phosphorylation"}, {"measurement": "de novo protein synthesis", "setting": "[4]", "value": "inhibit"}, {"measurement": "motility (scratch wound)", "setting": "[5]", "value": "inhibit motility"}, {"measurement": "motility (scratch wound)", "setting": "[6]", "value": "inhibit motility"}, {"measurement": "invasion towards 10% FBS", "setting": "[7]; UACC-647, Matrigel-coated CIM-Plates", "value": "inhibit"}, {"measurement": "migration towards 10% FBS", "setting": "[7]; UACC-647, unmodified CIM-Plates", "value": "inhibit migration"}, {"measurement": "migratory rate", "setting": "[7]", "value": "decreased migratory rate"}, {"measurement": "invasion towards 10% FBS", "setting": "[8]; M93-047, Matrigel-coated CIM-Plates", "value": "inhibit"}, {"measurement": "migration towards 10% FBS", "setting": "[8]; M93-047, unmodified CIM-Plates", "value": "inhibit migration"}, {"measurement": "proliferation", "setting": "[9]", "value": "inhibit proliferation"}, {"measurement": "proliferation", "setting": "[10]", "value": "inhibit proliferation"}, {"measurement": "growth", "setting": "[11]", "value": "did not inhibit"}, {"measurement": "nadir of U-shaped dose-response curve of phosphorylated ERK levels", "setting": "[12]; UACC 647, serum starved 3 hours, 15 minutes", "value": 1, "unit": "nM"}, {"measurement": "nadir of U-shaped dose-response curve of phosphorylated ERK levels", "setting": "[13]", "value": 1, "unit": "nM"}, {"measurement": "levels of phosphorylated MEK", "setting": "[14]", "value": "decreased"}]}
{"smiles": "O=S(=O)(NCCNC/C=C/c1ccc(Br)cc1)c1cccc2cnccc12", "note": "[H-89, reference compound]", "values": [{"measurement": "effect of pretreatment on anti-migratory activity of MNF (100 nM)", "setting": "[7]", "value": "blocked"}, {"measurement": "migratory rate", "setting": "[7]", "value": "increased migratory rate"}]}
{"smiles": "Cc1ccc(OCC(O)C(C)NC(C)C)c2c1CCC2", "note": "(stereo not shown) [ICI 118,551, 3-(isopropylamino)-1-[(7-methyl-4-indanyl)oxy]butan-2-ol, reference compound]", "values": [{"measurement": "effect of pretreatment on anti-migratory activity of MNF (100 nM)", "setting": "[7]", "value": "completely abolished"}, {"measurement": "effect of pretreatment on MNF-evoked drop in phospho ERK levels", "setting": "[12]; UACC647, pretreatment 50 nM", "value": "abolished"}]}
